Test: Storage stability of crystalline form (polymorphic transformation)
Type: physicochemical
Settings: stored under 100% relative humidity at 40° C. for 3 days
Source text: In another embodiment, the present invention provides a solid crystalline form of ibandronate sodium denominated Form QQ. Form QQ is characterized by x-ray powder diffraction reflections at 6.2, 25.9, 26.7, 31.1, and 37.2±0.2 degrees two-theta. Form QQ can be further characterized by x-ray powder diffraction reflections at 16.9, 17.3, 21.5, 24.7, and 29.2±0.2 degrees two-theta. […] Form QQ also has a particle size distribution of not more than 100μpreferably not more than 60μ. […] can be a in the range of a monohydrate to a trihydrate. Form QQ can be further characterized by TGA, showing a weight loss of about 5 to about 12%.

Question: With `CCCCCN(C)CCC(O)(P(=O)([O-])O)P(=O)(O)O.[Na+]` [Form QQ, (1-hydroxy-3-(N-methyl-N-pentylamino)propylidene) bisphosphonic acid monosodium salt] as the compound, how does the “transformation into other polymorphic forms when stored” value read?
Answer: ≤ 5%
